# Laboratory results from patent US20050049278A1, “Benzo[1,3]dioxole compounds, pharmaceutical compositions thereof, and processes of making and using the same” (priority 2003, published 2005).
# How the values were obtained:
# topoisomerase II = target: T1, topoisomerase II (Homo sapiens, UniProt P11388); assay: Topoisomerase II assay (supercoiled pBluescript DNA, agarose gel); assay type: biochemical; settings: in vitro, FIG. 2
# T1 construct: purchased Topogen Inc
# Description: (§1) Analysis of topoisomerase activity was performed in 20 μl reactions with either topoisomerase I reaction buffer (10 mM TRIS-HCl, pH 7.5; 100 mM NaCl; 1 mM 2-mercaptoethanol) or topoisomerase II reaction buffer (50 mM Tris-HCl, pH 8; 120 mM KCl; 10 mM MgCl2; 0.5 mM dithiothreitol; 0.5 mM ATP; 30 μg BSA/ml) containing 125 ng supercoiled pBluescript DNA and either 2 U topoisomerase I (Sigma-Aldrich) or topoisomerase II (Topogen Inc.). After reaction at 37° C. for 20 minutes, the reactions were terminated through the addition of sodium dodecyl sulfate to 1% w/v and heating to 65° C. for 10 minutes. Proteinase K was then added to 10 μg/ml and digestion was allowed to proceed at 37° C. for 20 minutes before electrophoresis of the DNA in 0.8% agarose gels containing 0.5 μg/ml ethidium bromide for 18 hours at 75V in 0.5×TBE buffer. DNA was then visualized using a UV-transilluminator and the image was captured using a BioRad CCD camera and gel documentation system.
# HEK293 cells [1] = assay: HEK293 cell viability, CellTiter 96 Aqueous One Solution Cell Proliferation assay; assay type: cell-based; settings: Homo sapiens, HEK293, 48 h, read-out: EC50
# Description: The effect of various doses of compounds 5a, 5a,b, and 9a on the viability of HEK293 cells was examined using the CellTiter 96 Aqueous One Solution Cell Proliferation assay (Promega). The HEK293 cells were cultured in DMEM media (Cellgro) or phenol red-free DMEM (Gibco) supplemented with 10% Fetal Bovine Serum (Tissue Culture Biologicals) and 1× Penicillin/Streptomycin/Glutamine (Gibco). The cells were grown at 37° C. with 5% CO2. HEK293 cells were seeded into each well of a 96-well plate (5000 cells/well) and incubated overnight to allow the cells to attach. The culture media was removed and replaced with 100 μl of phenol red-free media containing the compounds 5a, 5a,b, and 9a at various concentrations. The cells were allowed to grow in the presence of the compounds for 48 hrs. At the end of the treatment, 20 μl of CellTiter 96 Aqueous One Solution reagent was added directly into each well, and the cells were incubated at 37° C. for 2 hrs. This reagent converts to a form that absorbs light at 490 nm by living cells. Thus, absorbance at 490 nm is proportional to the number of viable cells. The 490 nm absorbance was measured on a BioRad plate reader. Control wells containing no cells were included in this assay to correct for background absorbance.
# HEK293 cells [2] = assay: Cell cycle analysis by FACS of HEK293 cells; assay type: cell-based; settings: HEK293, 50 μM, treated 16 to 24 hrs
# Description: Fluorescence-activated cell sorting (FACS) analysis was used to examine the cell cycle state when the cells were incubated with compounds of formula (I) as well as several control compounds, including DMSO, noscapine (a known G2/M inhibitor), and colchicine (a known G2/M inhibitor).
# In particular, HEK293 cells were cultured in DMEM media (Celigro) supplemented with 10% Fetal Bovine Serum (Tissue Culture Biologicals) and 1× Penicillin/Streptomycin/Glutamine (Gibco). The cells were grown at 37° C. with 5% CO2, plated in six-well plates at 2.5×10^6 cells/well, and treated for 16 to 24 hrs with the compounds at the concentrations shown in Table 1, below. The cells were then triturated off the bottom of the wells, washed 1× with PBS, then fixed with 70% ethanol, and stored at 4° C. before staining and FACS analysis.
# The DNA content of cells was determined using a FacsVantage SE flow cytometry system (Becton Dickinson, San Jose, Calif.) and a Cellular DNA Flow Cytometric Analysis Kit (Roche Applied Science, Indianapolis, Ind.). Cell cycle analysis was performed using Cylchred 1.0.2 software.
# topoisomerase I = target: T2, topoisomerase I (Homo sapiens, UniProt P11387); assay: Topoisomerase I assay (supercoiled pBluescript DNA, agarose gel); assay type: biochemical; settings: in vitro, FIG. 2
# T2 construct: purchased Sigma-Aldrich
# T2 sequence (P11387 1-765): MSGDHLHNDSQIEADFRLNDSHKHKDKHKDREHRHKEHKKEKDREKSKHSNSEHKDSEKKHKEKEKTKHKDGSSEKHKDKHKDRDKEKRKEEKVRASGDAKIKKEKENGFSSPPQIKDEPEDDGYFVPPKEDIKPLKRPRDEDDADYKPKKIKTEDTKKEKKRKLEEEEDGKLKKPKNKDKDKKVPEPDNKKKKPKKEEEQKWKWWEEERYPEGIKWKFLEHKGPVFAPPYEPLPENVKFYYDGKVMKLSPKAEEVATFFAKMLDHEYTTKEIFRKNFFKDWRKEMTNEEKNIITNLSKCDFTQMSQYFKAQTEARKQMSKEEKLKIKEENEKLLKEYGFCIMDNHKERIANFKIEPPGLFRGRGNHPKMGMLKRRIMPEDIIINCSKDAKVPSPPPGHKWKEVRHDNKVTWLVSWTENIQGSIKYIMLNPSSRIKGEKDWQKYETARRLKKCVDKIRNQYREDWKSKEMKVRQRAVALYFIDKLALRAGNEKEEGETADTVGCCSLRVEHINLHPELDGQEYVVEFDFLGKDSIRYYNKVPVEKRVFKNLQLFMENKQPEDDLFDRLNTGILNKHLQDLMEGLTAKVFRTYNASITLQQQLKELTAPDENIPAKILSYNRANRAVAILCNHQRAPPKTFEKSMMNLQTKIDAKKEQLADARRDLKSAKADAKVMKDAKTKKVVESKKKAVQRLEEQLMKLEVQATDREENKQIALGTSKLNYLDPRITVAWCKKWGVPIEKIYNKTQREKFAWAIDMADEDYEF
# Description: as §1, with “The ability of compounds that cause S-phase cell cycle arrest to inhibit topoisomerase I and topoisomerase II was examined. Analysis” for “Analysis”
# T1 sequence (P11388 whole entry): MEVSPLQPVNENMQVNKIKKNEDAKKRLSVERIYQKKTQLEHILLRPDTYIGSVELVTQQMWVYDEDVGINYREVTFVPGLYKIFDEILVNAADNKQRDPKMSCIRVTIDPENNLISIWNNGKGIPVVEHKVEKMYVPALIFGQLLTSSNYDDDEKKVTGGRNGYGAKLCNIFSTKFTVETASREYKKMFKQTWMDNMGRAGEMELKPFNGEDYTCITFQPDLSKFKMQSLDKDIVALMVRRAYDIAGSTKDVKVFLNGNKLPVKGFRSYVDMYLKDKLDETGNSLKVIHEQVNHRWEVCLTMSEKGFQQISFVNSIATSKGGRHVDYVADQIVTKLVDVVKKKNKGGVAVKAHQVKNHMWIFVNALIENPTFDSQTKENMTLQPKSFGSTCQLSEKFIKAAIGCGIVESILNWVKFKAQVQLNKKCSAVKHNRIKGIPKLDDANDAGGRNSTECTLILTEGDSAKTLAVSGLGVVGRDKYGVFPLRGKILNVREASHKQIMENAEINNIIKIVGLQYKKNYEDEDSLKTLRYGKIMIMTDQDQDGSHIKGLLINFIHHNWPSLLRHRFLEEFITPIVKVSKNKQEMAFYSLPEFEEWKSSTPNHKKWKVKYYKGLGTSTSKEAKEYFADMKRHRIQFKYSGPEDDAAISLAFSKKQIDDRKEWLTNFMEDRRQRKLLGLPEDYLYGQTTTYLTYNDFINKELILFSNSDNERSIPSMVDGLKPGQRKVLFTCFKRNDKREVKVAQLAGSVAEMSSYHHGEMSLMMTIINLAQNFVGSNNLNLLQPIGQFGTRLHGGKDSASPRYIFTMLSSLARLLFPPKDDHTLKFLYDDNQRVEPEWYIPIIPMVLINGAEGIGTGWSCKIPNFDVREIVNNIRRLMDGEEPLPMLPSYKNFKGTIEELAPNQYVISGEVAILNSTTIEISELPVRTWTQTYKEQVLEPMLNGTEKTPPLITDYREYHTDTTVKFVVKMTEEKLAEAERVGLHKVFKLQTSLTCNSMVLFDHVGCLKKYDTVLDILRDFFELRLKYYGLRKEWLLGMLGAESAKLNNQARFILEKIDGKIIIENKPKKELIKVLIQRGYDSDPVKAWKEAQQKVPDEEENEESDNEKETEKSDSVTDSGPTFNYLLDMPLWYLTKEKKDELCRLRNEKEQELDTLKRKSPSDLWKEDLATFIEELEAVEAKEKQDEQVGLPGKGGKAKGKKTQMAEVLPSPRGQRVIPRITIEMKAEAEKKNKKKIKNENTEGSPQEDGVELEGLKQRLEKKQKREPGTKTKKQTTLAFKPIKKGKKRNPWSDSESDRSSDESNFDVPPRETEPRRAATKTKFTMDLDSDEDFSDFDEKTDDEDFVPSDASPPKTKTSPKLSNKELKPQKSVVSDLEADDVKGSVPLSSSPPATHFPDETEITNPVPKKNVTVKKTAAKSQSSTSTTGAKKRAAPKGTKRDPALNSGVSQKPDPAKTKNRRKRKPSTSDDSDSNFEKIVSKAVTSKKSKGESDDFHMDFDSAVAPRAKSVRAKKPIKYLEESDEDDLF
structure (smiles),measurement,setting,value
"COc1ccc2c(c1OC)C(=O)O[C@@H]2[C@H]1c2c(cc3c(c2OC)OCO3)CCN1C [Noscapine, noscapine, reference compound]",inhibition of topoisomerase II activity,topoisomerase II,neither topotecan nor noscapine acts as inhibitors
same,EC50,HEK293 cells [1],~10 µM
same,Percent of Cells in G1,HEK293 cells [2],19.2%
same,Percent of Cells in G2/M,HEK293 cells [2],49.6%
same,Percent of Cells in S,HEK293 cells [2],31.1%
same,inhibition of topoisomerase I activity,topoisomerase I,neither etoposide nor noscapine inhibited
